Measurements from patent US7655624B2, “Peptide and peptide mimetic conjugates with integrin-inhibitor properties” (Biomet Deutschland GmbH, priority 2000, dated 2010).

Test system: mouse MC3T3 H1 osteoblast cultures
Assay: Cell adhesion test on RGD-peptide-coated material surfaces
Format: cell-based
Conditions: adhered cells/inoculated cells x 100; 50 000 cells/cm^2 inoculated on peptide-coated material surface; serum-free medium, 37° C./95% atmospheric humidity, one hour
Method: The shaped articles are transferred into 48 wells (Costar, “non-tissue culture treated” Art. No. 3574). To attach the bioactive, cell adhesion-mediating molecules B (where B can be a cyclopeptide, peptide mimetic or linear peptide according to claim 2) to the prepared shaped articles, molecule B-containing stock solutions (“B solutions”) are prepared in a final concentration of 1 mM in one of the aqueous buffers Tris-HCl (10 mM, pH 8.7), Tris-HClO4 (10 mM, pH 8.7) or PBS, pH 7.4. Concentration series with the “B solutions” final concentrations of in each case 1 nm, 10 nm, 100 nm, 1 μm, 10 μm and 100 μm are then prepared by dilution with PBS, pH 7.4. The shaped articles are each covered with 250 μl of the respective B solution and then incubated at room temperature for 18-24 hours. To remove unbound B molecules, the samples are washed three times with PBS, pH 7.4, and stored in PBS, pH 7.4, at 4° C. overnight. […]
The adhesion of mouse MC3T3 H1 osteoblast cultures in vitro to RGD-peptide-coated material surfaces was investigated. In this test, 50 000 cells/cm^2 were inoculated and, after incubation in serum-free medium at 37° C./95% atmospheric humidity for one hour, the proportion of adhered cells was determined. […]

Substance	cell adhesion rate [%]
Cyclo-(Arg-Gly-Asp-DPhe-Lys (N^εH—[CO—(CH2)5—NH]3-Lys-[Lys-(CO—CH2—CH2—PO3H2)2]2) [Example 5]	62
Cyclo-(Arg-Gly-Asp-DPhe-Lys (N^εH[CO—(CH2)5—NH]2-Lys-[Lys-(CO—CH2—CH2—PO3H2)2]2)) [Example 4]	75
